We go through six compounds from patent US9753018B2, “Selenium-containing compound” (Fisheries Research Agency, priority 2009, dated 2017).

Data set [1] in a line: DPPH radical-scavenging ability (RS50). Format: biochemical. The note with it: for EC50: concentration at which DPPH radical-scavenging rate was 50%, room temperature 30 minutes, absorbance 595 nm. How it is done:
In order to evaluate the chemical antioxidant ability of the selenium-containing compound (chemical formula 4: oxidized dimer) according to one embodiment of the invention, the 1,1-diphenyl-2-picrylhydrazyl (DPPH) radical-scavenging ability was measured (Hideo Kimura, Kota Naganuma, Masato Kojima, Masakazu Komatsu, Takumi Onda, and Masao Tsuji, Yamanashi Prefectural Industrial Technology Center Report, No. 22, pp. 59-63 (2008)).
Specifically, a selenium-containing compound (selenium content: 1.62 μM) derived from the meat of Xiphias gladius, a 10 mM aqueous solution of a water-soluble vitamin E derivative (commercially available antioxidant) (Trolox (registered trademark) (CAS No.: 56305-04-5, manufactured by Roche)), and a 4.36 mM aqueous solution of (+)-ergothioneine (CAS No.: 497-30-3, manufactured by SIGMA) were repeatedly 2-fold diluted with purified water to prepare 2 to 128-fold diluted test solutions.
10 μl of the test solution and 100 μl of a DPPH solution (0.35 mM, prepared by dissolving 1.38 mg of DPPH in 5 ml of ethanol, and adding 5 ml of a 0.1 M phosphate buffer (pH: 6.8) to the solution) were mixed on a 96-well micro test plate (BD Falcon (registered trademark), #1722, manufactured by Becton, and Dickinson and Company), and reacted at room temperature for 30 minutes in a dark place. The absorbance at 595 nm was then measured. A case of using purified water (absorbance: 0.59) as the test solution was determined that the DPPH radical-scavenging rate was 0%, and a case of using 10 mM Trolox (registered trademark) (absorbance: 0.19) as the test solution was determined that the DPPH radical-scavenging rate was 100%. The concentration at which the DPPH radical-scavenging rate was 50% was determined to be the RS50 of each substance, and taken as the antioxidant ability.

Data set [2] has as its system animal cells (ZE, YT, RTG-2, HUV-EC-C, AT2KY, TIG-S3, HEK293 cells). Briefly: Cell proliferation-promoting effect on cultured cells (cell count by trypan blue staining). It is filed as cell-based. The note with it: 0-100 nM, 0-5 days, fish and human cell lines. How it is done: Specifically, Danio rerio embryo ZE cells (National Research Institute of Fisheries Science), Seriola quinqueradiata tail fin YT cells (National Research Institute of Fisheries Science), and Oncorhynchus mykiss gonad RTG-2 cells (ATCCCCL55) were cultured in an L-15 medium containing 2% fetal bovine serum (30,000 cells/ml).
Human vessel endothelial cells (human umbilical cord vein HUV-EC-C, Health Science Research Resources Bank (http://www.jhsf.or.jp)) were cultured in an MCDB131 medium containing 10% fetal bovine serum (10,000 cells/ml).
(§1) AT cells derived from the skin of a human patient with ataxia telangiectasia syndrome (AT2KY, Health Science Research Resources Bank, JCRB0316), human skin TIG-S3 cells (Health Science Research Resources Bank, JCRB0544), and human kidney HEK293 cells (Health Science Research Resources Bank, JCRB9068) were cultured in a DMEM medium containing 10% fetal bovine serum (15,000 cells/ml).
The selenium-containing compound was added to each culture medium (containing 2% serum) so that the final concentration was 0, 5, 10, 25, 50, or 100 nM. […] The cell count was determined by trypan blue staining after culturing the cells for 0, 1, 2, 3, 4, and 5 days.

The test system of data set [3] is human vessel endothelial cells (human umbilical cord vein HUV-EC-C). The data set is described as follows: MTT assay of human vessel endothelial cells cultured with selenium compounds. Format: cell-based. How it is done: In order to clarify the intracellular function of the selenium-containing compound (chemical formula 4: oxidized dimer) according to one embodiment of the invention, the selenium-containing compound (chemical formula 4: oxidized dimer) according to one embodiment of the invention was administered to human vessel endothelial cells (human umbilical cord vein HUV-EC-C, Health Science Research Resources Bank (http://www.jhsf.or.jp)).
Specifically, human vessel endothelial cells (10,000 cells/ml) were cultured on a 48-well plate using an MCDB131 medium (manufactured by Invitrogen) containing 10% fetal bovine serum. […] The passage number was set to 5 or less in order to maintain the properties of the human vessel endothelial cells.
The mitochondrial respiratory chain activity was determined using an MTT assay kit (manufactured by Nacalai Tesque, Inc.). Specifically, after culturing the human vessel endothelial cells, an MTT solution was added to the culture solution in an amount 1/10th of that of the culture solution, and the cells were cultured at 37° C. for 3 hours under 5% carbon dioxide. An equal amount of isopropanol was then added to the culture solution to extract a formazan dye, and the absorbance at 595 nm was determined.

The next data set relates to rabbit red cells. The data set is described as follows: Active oxygen level in red cells (hydroxyphenyl fluorescein). Format: cell-based. The note with it: HPF fluorescence; versus control. How it is done: Preserved rabbit blood (Nippon Biotest Laboratories Inc.) was washed three times with a physiological saline solution (centrifuged at 2000 rpm and 4° C. for 5 min) to collect red cells. The red cells were suspended in a 4-fold amount of an RPMI medium (GIBCO (registered trademark) RPMI Medium 1640 manufactured by Invitrogen Co.), and cultured at 37° C. for 1 day using a carbon dioxide incubator. The selenium-containing compound was added to the culture solution so that the final concentration of the selenium-containing compound in the medium was 10, 25, or 50 nM (control: the selenium-containing compound was not added), and the cells were cultured. The red cells were then collected by centrifugation (2000×g, 4° C., 5 min), washed three times with a phosphate buffered saline (PBS), and collected by centrifugation. […] The absorbance ratio at 405 nm and 430 nm before and after incubation was measured, and the rate of metmyoglobin formation of the hemoglobin was calculated.
The active oxygen level in the red cells was also measured using hydroxyphenyl fluorescein (HPF) (manufactured by Sekisui Medical Co., Ltd.). […] The fluorescence intensity (excitation wavelength: 490 nm, fluorescence wavelength: 515 nm) due to the reaction product with active oxygen was measured, and used as an index of the active oxygen level.

Data set [4] has as its system heme protein (myoglobin, hemoglobin). The data set is described as follows: Heme iron binding effect (Se/Fe determination in heme proteins). Details: species or system Thunnus orientalis, rabbit, Physeter macrocephalus. The settings on record: Se/Fe molar ratio of purified myoglobin and hemoglobin 0.003, 0.0003, 0.001. The procedure: Since it was confirmed that the selenium-containing compound has a heme protein auto-oxidation inhibitory effect (see “5. Metmyoglobin formation inhibitory effect of selenium-containing compound”), the binding capability of the selenium-containing compound with heme proteins was determined. Physeter macrocephalus (sperm whale) myoglobin available from SIGMA was used. 100 g of the dark muscle of Thunnus orientalis was mixed with a 5-fold amount of cold water, ground using a POLYTRON™ homogenizer, and centrifuged (6000×g, 10 min). The supernatant liquid was collected, and passed through a Sephacryl-100 column (16 mm×60 cm, manufactured by Pharmacia) that was equilibrated with a 0.05 M Tris-HCl buffer (pH: 7) containing 0.1 M salt to purify myoglobin derived from the dark muscle of Thunnus orientalis. […]
The selenium content in the Physeter macrocephalus myoglobin, the Thunnus orientalis myoglobin, the rabbit hemoglobin, and the Thunnus orientalis hemoglobin was measured. Selenium was detected from each sample. The elements contained in the Physeter macrocephalus myoglobin were measured by HPLC-ICP-MS.
The sample was wet-decomposed using nitric acid and hydrogen peroxide. Iron was quantitatively determined using an inductively coupled plasma atomic emission spectrometer (ICP-AES) (“ICPE-9000” manufactured by Shimadzu Corporation), and selenium was quantitatively determined by fluorometry. […]

Data set [5] is described as follows: Solubility (physico-chemical properties). Format: physicochemical. The settings on record: solvents as named in the value.
The subject of data set [6] is AT cells derived from the skin of a human patient with ataxia telangiectasia syndrome (AT2KY). The data set is described as follows: Cell proliferation-promoting effect on AT cells (cell count by trypan blue staining). The settings on record: 0-100 nM, 37° C., 0-5 days. Format: cell-based. How it is done: as §1
The selenium-containing compound was added to each culture medium (containing 2% serum) so that the final concentration was 0, 5, 10, 25, 50, or 100 nM. The Danio rerio embryo ZE cells were cultured at 25° C., the Seriola quinqueradiata tail fin YT cells were cultured at 20° C., and Oncorhynchus mykiss gonad RTG-2 cells were cultured at 15° C., and the human vessel endothelial cells, the AT cells derived from the skin of a human patient with ataxia telangiectasia syndrome, the human skin TIG-S3 cells, and the human kidney HEK293 cells were cultured at 37° C. The cell count was determined by trypan blue staining after culturing the cells for 0, 1, 2, 3, 4, and 5 days. […]

Data set [7] relates to hemoglobin of rabbit red cells. The data set is described as follows: Metmyoglobin formation inhibitory effect (hemoglobin collected from red cells). It is filed as cell-based. The note with it: 10, 25 or 50 nM in medium; hemoglobin solution incubated 37° C. 3 hours; versus control. The procedure: Preserved rabbit blood (Nippon Biotest Laboratories Inc.) was washed three times with a physiological saline solution (centrifuged at 2000 rpm and 4° C. for 5 min) to collect red cells. The red cells were suspended in a 4-fold amount of an RPMI medium (GIBCO (registered trademark) RPMI Medium 1640 manufactured by Invitrogen Co.), and cultured at 37° C. for 1 day using a carbon dioxide incubator. The selenium-containing compound was added to the culture solution so that the final concentration of the selenium-containing compound in the medium was 10, 25, or 50 nM (control: the selenium-containing compound was not added), and the cells were cultured. The red cells were then collected by centrifugation (2000×g, 4° C., 5 min), washed three times with a phosphate buffered saline (PBS), and collected by centrifugation. The red cells were hemolyzed by adding a 10 mM sodium phosphate buffer (pH: 7.2) to the red cell pellets, and centrifuged (15,000×g, 4° C., 10 min). The supernatant hemoglobin solution was then collected. The hemoglobin solution was diluted with a 100-fold amount of a 50 mM sodium phosphate buffer (pH: 6.8), and incubated at 37° C. for 3 hours. The absorbance ratio at 405 nm and 430 nm before and after incubation was measured, and the rate of metmyoglobin formation of the hemoglobin was calculated.

Data set [8] deals with human vessel endothelial cells. Briefly: Cell proliferation rate (MTT) under hydrogen peroxide oxidative stress. Format: cell-based. The note with it: 5 mM, 1 hour pre-culture, then hydrogen peroxide 25 or 50 μM, 24 hours. How it is done:
The in vivo antioxidant effect of the selenium-containing compound (chemical formula 4: oxidized dimer) according to one embodiment of the invention was determined using human vessel endothelial cells. Specifically, human vessel endothelial cells (10,000 cells/ml) were cultured on a 48-well plate using an MCDB131 medium containing 10% fetal bovine serum. The selenium-containing compound was added to the culture solution so that the final concentration was 5 mM (control: the selenium-containing compound was not added), and the cells were cultured at 37° C. for 1 hour under 5% carbon dioxide. After the addition of hydrogen peroxide to a final concentration of 25 or 50 μM, the cells were cultured at 37° C. for 24 hours under 5% carbon dioxide. The cell proliferation rate was then determined by the MTT assay. […] Specifically, it was confirmed that the selenium-containing compound (chemical formula 4: oxidized dimer) according to one embodiment of the invention has an in vivo antioxidant effect.

Structures are written as SMILES.

In turn, `C[N+](C)(C)[C@@H](Cc1c[nH]c(=S)[nH]1)C(=O)[O-]` [L-(+)-ergothioneine, reference compound] gave an EC50 in data set [1] of 1700 µM.

`Cc1c(C)c2c(c(C)c1O)CCC(C)(C(=O)O)O2` (stereo not shown) [Trolox, 6-hydroxy-2,5,7,8-tetrametylchroman-2-carboxylic acid, reference compound]: the EC50 in [1] was 880 µM. Against the preceding compound, the EC50 is about 1.9-fold lower.

Regarding `C[N+](C)(C)C(Cc1cnc([Se][Se]c2ncc(CC(C(=O)[O-])[N+](C)(C)C)[nH]2)[nH]1)C(=O)[O-]` (stereo not shown) [chemical formula 4, 3,3′-(2,2′-diselanediylbis(1H-imidazole-5,2-diyl))bis(2-(trimethylammonio)propanoate)], in [2], the “cell proliferation (cell count)” value is given as “significantly promotes proliferation of animal cells”. The “effect on cell proliferation (MTT)” value in data set [3] (5 mM, 24 hours, 37° C.) was “cell proliferation-promoting effect”. Moreover, in data set [3] (versus selenious acid, selenocystine, selenomethionine), the “cytotoxicity compared with known selenium-containing compounds” value is “very low cytotoxicity”. The “active oxygen level in the red cells” value in the data set on rabbit red cells is “lower than that of the control”. Further, in data set [4], the “binding to heme protein” value is listed as “bound to a heme protein”. Besides, the Solubility result was “scarcely soluble in acetone and acetonitrile” in [5] (in acetone and acetonitrile); “Soluble in water, ethanol, and methanol;” in data set [5] (in water, ethanol and methanol). Further, the “proliferation of AT cells” value in [6] is given as “effect of promoting proliferation of the AT cells”. Also, the “rate of metmyoglobin formation of hemoglobin” value in [7] is listed as “lower than that of the control”. In data set [1] (DPPH, relative to L-(+)-ergothioneine), the “concentration giving radical-scavenging ability equal to L-(+)-ergothioneine, as fraction of ergothioneine concentration” value is given as 1/907. Besides, in [1] (DPPH, relative to water-soluble vitamin E derivative (Trolox)), the “concentration giving radical-scavenging ability equal to Trolox, as fraction of Trolox concentration” value is reported as 1/456. Further, the “radical-scavenging ability higher than Trolox by a factor” value in [1] (chemical test, relative to Trolox) is reported as “about 500”. This compound also gave an EC50 in [1] of 1.9 µM. In addition, in data set [8], the “cellular proliferative potential under oxidative stress” value is listed as “improved”.

Turning to `N[C@@H](C[Se][Se]C[C@H](N)C(=O)O)C(=O)O` [selenocystine], the “effect on cell proliferation (MTT)” value in data set [3] (5 nM added to culture medium) is reported as “cell death occurred”.

As to `C[Se]CC[C@H](N)C(=O)O` [selenomethionine], the “effect on cell proliferation (MTT)” value in data set [3] (5 nM added to culture medium) is “cell death occurred”.

As for `O=[Se](O)O` [sodium selenite], the “effect on cell proliferation (MTT)” value in [3] (5 nM added to culture medium) is listed as “cell death occurred”.
